A short description of data set [1]: Hepatocyte Stability Assay, mouse hepatocytes. To be noted: for hepatocyte CLint at 1 uM: male, CD-1, cryopreserved hepatocytes, pH 7.3, mouse hepatocytes 0.7 million cells per mL, 1 uM compound; for Hepatocyte Stability Mouse % rem. 120 min: mouse hepatocytes. Format: in vitro ADME. The method in brief: (§1)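 Pooled cryopreserved hepatocytes (male CD-1 mice, ≥10; mixed-gender human donors, ≥10) at 0.7 million viable cells/mL in Krebs-Heinslet buffer pH 7.3, compound 1 uM, ≤0.01% DMSO. Incubated at 37° C./5% CO2 up to 2 h, acetonitrile-quenched; parent peak area by HPLC-MS/MS.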

A short description of data set [2]: Hepatocyte Stability Assay, human hepatocytes. Format: in vitro ADME. To be noted: for hepatocyte CLint at 1 uM: both sexes, cryopreserved hepatocytes, pH 7.3, human hepatocytes 0.7 million cells per mL, 1 uM compound; for Hepatocyte Stability Human % rem. 120 min: human hepatocytes. Put shortly: as §1
Data set [3] relates to pDNA-PK induction in HCT116 tumour spheroids. Put plainly: Multicellular tumour spheroid + radiation, pDNA-PK (ser2056) inhibition, immunohistochemical endpoint, HCT116. Format: cell-based. To be noted: Homo sapiens, HCT-116, 20 Gy, 2 hours following radiation, 20% O2. Put shortly:
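HCT116 spheroids (~0.5 mm) in MEM/10% FBS, 20% O2, 37° C., pre-incubated 1 h with compound (10 or 5 μM down to 3.5 nM), irradiated 20 Gy, then 2 h further with compound. Cryosections immunostained for pDNA-PK ser2056; EC50 is concentration halving radiation-induced pDNA-PK.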

The target of data set [4] is T1, DNA-PK phosphorylation at Serine 2056 (Homo sapiens, UniProt P78527).
T1 construct: FaDu cells were purchased from ATCC; host or cells: FaDu
The data set is described as follows: Cellular Assay for Inhibition of DNA-PK Phosphorylation at Serine 2056 in FaDu cells (sandwich ELISA, neocarzinostatin). Format: cell-based. The note with it: pSer2056 DNA-PK, neocarzinostatin 1 μg/mL, Table 1. Put shortly: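 pSer2056 and total DNA-PK were measured by sandwich ELISA in BCA-normalised FaDu lysates. Cells had 1 h compound exposure (0.3% DMSO), then 2 h with 1 μg/mL final neocarzinostatin. IC50 was fitted (variable slope) to % inhibition scaled against NCS-stimulated and DMSO-only controls.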
(ELISA stands for enzyme-linked immunosorbent assay.)

Where [5] appears, read: Example 9 Study 2, read-out: Spheroid Cell line: HCT116 Immunohistochemical endpoint pDNA-PK inhibition EC50.
Setting [6] is: Spheroid, Cell Line: HCT115 (so in the source), Example 7, read-out: EC50, Immunohistochemical endpoint, pDNA-PK inhibition.

Each structure is given as a SMILES string. Like-named read-outs stand apart in the source and are kept apart here. Where only a bound is given, the exact number is not on record here.

For the molecule `CN(C)C(=O)COc1cnc(N[C@H]2CC[C@@H](Oc3nc(N4CCOCC4)cc4ncc(NS(C)(=O)=O)cc34)CC2)nc1` [Compound 182, N,N-dimethyl-2-((2-(((1s,4s)-4-((3-(methylsulfonamido)-7-morpholino-1,6-naphthyridin-5-yl)oxy)cyclohexyl)amino)pyrimidin-5-yl)oxy)acetamide], in data set [1], the hepatocyte CLint at 1 uM was less than 8.2 µL/min/1e6 cells and the “Hepatocyte Stability Mouse % rem. 120 min” value is on record as “H (% remaining = 75-100%)”. Further, in data set [2], the hepatocyte CLint at 1 uM is less than 8.2 µL/min/1e6 cells and the “Hepatocyte Stability Human % rem. 120 min” value is “H (% remaining = 75-100%)”. Also, the EC50 in data set [3] (setting [5]) was in the range of 10 to 500 nM. Besides, the EC50 in data set [3] (setting [6]) fell in the range of 10 to 500 nM. In data set [4], this molecule showed a half-maximal inhibitory concentration (IC50) of 100 to 1000 nM.

`O=S(=O)(CF)Nc1cnc2cc(N3CCOCC3)nc(O[C@H]3CC[C@@H](Nc4ncccn4)CC3)c2c1` [Compound 192, 1-fluoro-N-(7-morpholino-5-(((1s,4s)-4-(pyrimidin-2-ylamino)cyclohexyl)oxy)-1,6-naphthyridin-3-yl)methanesulfonamide]: in data set [1], the hepatocyte CLint at 1 uM was less than 8.2 µL/min/1e6 cells and the “Hepatocyte Stability Mouse % rem. 120 min” value was “H (% remaining = 75-100%)”. In data set [2], the hepatocyte CLint at 1 uM was less than 8.2 µL/min/1e6 cells and the “Hepatocyte Stability Human % rem. 120 min” value was “H (% remaining = 75-100%)”. In addition, the EC50 in data set [3] (setting [5]) was 10 to 500 nM. Further, in data set [3] (setting [6]), the EC50 fell in the range of 10 to 500 nM. For the same molecule, the IC50 in data set [4] was in the range of 100 to 1000 nM.

Regarding `O=S(=O)(CC(F)F)Nc1cnc2cc(N3CCOCC3)nc(O[C@H]3CC[C@@H](Nc4ncccn4)CC3)c2c1` [Compound 193, 2,2-difluoro-N-(7-morpholino-5-(((1s,4s)-4-(pyrimidin-2-ylamino)cyclohexyl)oxy)-1,6-naphthyridin-3-yl)ethane-1-sulfonamide], in data set [1], the hepatocyte CLint at 1 uM is more than 8.2 µL/min/1e6 cells and the “Hepatocyte Stability Mouse % rem. 120 min” value is “F (% remaining = 25-50%)”. For the same molecule, in data set [2], the intrinsic clearance (hepatocyte CLint) at 1 uM is less than 8.2 µL/min/1e6 cells and the “Hepatocyte Stability Human % rem. 120 min” value is listed as “G (% remaining = 50-75%)”. Also, in data set [3] (setting [5]), the half-maximal effective concentration (EC50) lay within 1000 to 10000 nM. The EC50 in data set [3] (setting [6]) was 1000 to 10000 nM. This molecule gave an IC50 in data set [4] of 100 to 1000 nM.

As to `CS(=O)(=O)c1cnc2cc(N3CCOCC3)nc(O[C@H]3CC[C@@H](Nc4ncccn4)CC3)c2c1` [Compound 200b, N-((1s,4s)-4-((3-(methylsulfonyl)-7-morpholino-1,6-naphthyridin-5-yl)oxy)cyclohexyl)pyrimidin-2-amine], in data set [1], the hepatocyte CLint at 1 uM was less than 8.2 µL/min/1e6 cells and the “Hepatocyte Stability Mouse % rem. 120 min” value is “G (% remaining = 50-75%)”. In data set [2], the hepatocyte CLint at 1 uM was less than 8.2 µL/min/1e6 cells and the “Hepatocyte Stability Human % rem. 120 min” value is listed as “G (% remaining = 50-75%)”. For the same molecule, the EC50 in data set [3] (setting [5]) lay in the range of 1000 to 10000 nM. In addition, the concentration giving a half-maximal response (EC50) in data set [3] (setting [6]) lay within 1000 to 10000 nM. This molecule also showed an IC50 in data set [4] of 100 to 1000 nM.

Regarding `CS(=O)(=O)c1cnc2cc(N3CCOCC3)nc(O[C@H]3CC[C@@H](Nc4ncc(OCC(=O)N5CCOCC5)cn4)CC3)c2c1` [Compound 204a, 2-((2-(((1s,4s)-4-((3-(methylsulfonyl)-7-morpholino-1,6-naphthyridin-5-yl)oxy)cyclohexyl)amino)pyrimidin-5-yl)oxy)-1-morpholinoethan-1-one], the hepatocyte CLint at 1 uM in data set [1] and in data set [2] was less than 8.2 µL/min/1e6 cells each time. Besides, the “Hepatocyte Stability Mouse % rem. 120 min” value in data set [1] is on record as “H (% remaining = 75-100%)”. In addition, the “Hepatocyte Stability Human % rem. 120 min” value in data set [2] is on record as “H (% remaining = 75-100%)”. Also, the EC50 in data set [3] (setting [5]) and in data set [3] (setting [6]) was 1000 to 10000 nM each time. For the same molecule, the 50% inhibitory concentration (IC50) in data set [4] lay in the range of 100 to 1000 nM.

For the molecule `CS(=O)(=O)c1cnc2cc(N3CCOCC3)nc(O[C@H]3CC[C@@H](Nc4ncnc5ccoc45)CC3)c2c1` [Compound 204b, N-((1s,4s)-4-((3-(methylsulfonyl)-7-morpholino-1,6-naphthyridin-5-yl)oxy)cyclohexyl)furo[3,2-d]pyrimidin-4-amine], in data set [1], the hepatocyte CLint at 1 uM was less than 8.2 µL/min/1e6 cells and the “Hepatocyte Stability Mouse % rem. 120 min” value is reported as “G (% remaining = 50-75%)”. In data set [2], the hepatocyte CLint at 1 uM was less than 8.2 µL/min/1e6 cells and the “Hepatocyte Stability Human % rem. 120 min” value is given as “G (% remaining = 50-75%)”. The half-maximal effective concentration (EC50) in data set [3] (setting [5]) was 10 to 500 nM. Moreover, the EC50 in data set [3] (setting [6]) was in the range of 10 to 500 nM. In data set [4], this molecule displayed an IC50 of less than 100 nM.

For `CS(=O)(=O)c1cnc2cc(N3CCOCC3)nc(O[C@H]3CC[C@@H](NC(=O)c4ncco4)CC3)c2c1` [Compound 204c, N-((1s,4s)-4-((3-(methylsulfonyl)-7-morpholino-1,6-naphthyridin-5-yl)oxy)cyclohexyl)oxazole-2-carboxamide], in data set [1], the hepatocyte CLint at 1 uM was less than 8.2 µL/min/1e6 cells and the “Hepatocyte Stability Mouse % rem. 120 min” value was “G (% remaining = 50-75%)”. In data set [2], the hepatocyte CLint at 1 uM was less than 8.2 µL/min/1e6 cells and the “Hepatocyte Stability Human % rem. 120 min” value is recorded as “H (% remaining = 75-100%)”. In addition, in data set [3] (setting [5]), the EC50 lay in the range of 1000 to 10000 nM. Further, the EC50 in data set [3] (setting [6]) fell in the range of 1000 to 10000 nM. Further, the IC50 in data set [4] was less than 100 nM.

Broadly, the hepatocyte CLint is the capacity of the preparation to metabolise the compound, expressed as a volume cleared per time. The low end stands for slow turnover, the high end for rapid turnover. For orientation: EC50 means the concentration needed to bring the measured effect to its halfway point. The term IC50 denotes the concentration that inhibits the measured activity by half. A high value points to a need for much substance.

The values above are taken from US20240239790A1, “7-Morpholino-1,6-Naphthyridin-5-yl Derivatives and Pharmaceutical Compositions Thereof Useful as DNA-PK Inhibitor” (adMare Therapeutics Society, priority 2021, published 2024).
